Series [1] deals with T1, MMP9 (Homo sapiens, UniProt P14780).
T1 construct: purchased R&D Systems 911-MP
Briefly: MMP assay (Mca-KPLGL-Dpa-AR-NH2 substrate). It counts as biochemical. As to conditions: triplicate, 10-point, 3:1 serial dilution, highest concentration 17.4 µM. The procedure:
(§1) We were able to procure 64 out of 87 selected compounds from commercial sources, which we tested in triplicate, 10-point, 3:1 serial dilution concentration response format starting at the highest concentration of 17.4 µM against both meprin α and meprin β. In addition to meprins, we also tested 64 hits against related metzincins (MMP-2, MMP-3, MMP-8, MMP-9, MMP-10, MMP-14, ADAM10, and ADAM17) to ascertain general nonpromiscuity against zinc-dependent proteases.
(§2) All assays followed the same general protocol. A 5 µL portion of 2 × enzyme solution (5 nM) in assay buffer (50 mM Tricine, 50 mM NaCl, 10 mM CaCl2, 0.05% Brij-35, pH 7.5) was added to solid bottom black 384 plates (Nunc, cat# 264705). Next, test compounds and pharmacological controls were added to corresponding wells using a 384-pin tool device (V&P Scientific, San Diego, CA, USA). After 30 min incubation at RT, the reactions were started by addition of 5 µL of 2x solutions of substrate (R&D Systems cat#: ES010, Mca-KPLGL-Dpa-AR-NH2, 20 µM). Reactions were incubated at RT for 1 h, after which the fluorescence was measured using the Synergy H4 multimode microplate reader (Biotek Instruments) (λexcitation = 324 nm, λemission = 390 nm).

Series [2] addresses T2, MMP2 (Homo sapiens, UniProt P08253).
T2 construct: purchased R&D Systems 902-MP
T2 sequence (P08253 110-660): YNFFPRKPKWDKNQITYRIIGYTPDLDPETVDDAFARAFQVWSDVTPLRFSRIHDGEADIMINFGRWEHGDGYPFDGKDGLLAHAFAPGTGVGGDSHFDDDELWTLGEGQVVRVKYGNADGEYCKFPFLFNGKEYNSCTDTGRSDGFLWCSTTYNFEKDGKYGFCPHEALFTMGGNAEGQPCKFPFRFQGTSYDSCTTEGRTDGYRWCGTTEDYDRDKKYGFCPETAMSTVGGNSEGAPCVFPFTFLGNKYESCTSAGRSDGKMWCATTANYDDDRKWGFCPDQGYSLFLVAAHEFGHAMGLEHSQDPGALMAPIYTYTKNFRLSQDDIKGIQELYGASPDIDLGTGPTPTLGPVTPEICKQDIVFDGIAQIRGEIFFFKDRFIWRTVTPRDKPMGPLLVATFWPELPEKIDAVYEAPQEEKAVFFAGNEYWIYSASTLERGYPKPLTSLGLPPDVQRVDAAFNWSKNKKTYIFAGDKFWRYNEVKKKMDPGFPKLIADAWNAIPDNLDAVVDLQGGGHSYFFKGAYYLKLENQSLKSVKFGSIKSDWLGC
Briefly: MMP assay (Mca-KPLGL-Dpa-AR-NH2 substrate). It counts as biochemical. The following applies: triplicate, 10-point, 3:1 serial dilution, highest concentration 17.4 µM. The procedure: as §1, §2

The target in series [3] is MMP3 (Homo sapiens, UniProt P08254). Briefly: MMP assay (Mca-KPLGL-Dpa-AR-NH2 substrate). The class given is biochemical. As to conditions: triplicate, 10-point, 3:1 serial dilution, highest concentration 17.4 µM. The procedure: as §1, §2
Series [4] has as its target T3, MMP8 (Homo sapiens, UniProt P22894).
T3 construct: purchased R&D Systems 908-MP
Briefly: MMP assay (Mca-KPLGL-Dpa-AR-NH2 substrate). It counts as biochemical. As to conditions: triplicate, 10-point, 3:1 serial dilution, highest concentration 17.4 µM. Here is the method:
(§3) In addition to meprins, we also tested 64 hits against related metzincins (MMP-2, MMP-3, MMP-8, MMP-9, MMP-10, MMP-14, ADAM10, and ADAM17) to ascertain general nonpromiscuity against zinc-dependent proteases.
(§4) All assays followed the same general protocol. […] After 30 min incubation at RT, the reactions were started by addition of 5 µL of 2x solutions of substrate (R&D Systems cat#: ES010, Mca-KPLGL-Dpa-AR-NH2, 20 µM). Reactions were incubated at RT for 1 h, after which the fluorescence was measured using the Synergy H4 multimode microplate reader (Biotek Instruments) (λexcitation = 324 nm, λemission = 390 nm).

Series [5] addresses T4, MMP14 (Homo sapiens, UniProt P50281).
T4 construct: purchased R&D Systems 918-MP
Briefly: MMP assay (Mca-KPLGL-Dpa-AR-NH2 substrate). The following applies: triplicate, 10-point, 3:1 serial dilution, highest concentration 17.4 µM. The class given is biochemical. The procedure:
as §3, §4

Series [6] deals with T5, MMP10 (Homo sapiens, UniProt P09238).
T5 construct: purchased R&D Systems 910-MP
Put plainly: MMP assay (Mca-KPLGL-Dpa-AR-NH2 substrate). The class given is biochemical. As to conditions: triplicate, 10-point, 3:1 serial dilution, highest concentration 17.4 µM. The procedure:
as §3, §4

Series [7] addresses T6, ADAM17 (Homo sapiens, UniProt P78536).
T6 construct: purchased R&D Systems 930-ADB
Briefly: ADAM17 assay (Mca-KPLGL-Dpa-AR-NH2 substrate). The class given is biochemical. As to conditions: triplicate, 10-point, 3:1 serial dilution, highest concentration 17.4 µM. The procedure: as §1
Both assays followed the same general protocol. A 2.5 µL portion of 2 × enzyme solution (20 nM) in assay buffer (10 mM HEPES, 0.001% Brij-35, pH 7.5) was added to solid bottom black 1536 plates (Greiner, cat# 789075). Next, test compounds and pharmacological controls were added to corresponding wells using a 1536 pin tool device (V&P Scientific, San Diego, CA, USA). After 30 min incubation at RT, the reactions were started by addition of 2.5 µL of 2x solutions of substrate (R&D Systems cat#: ES010, Mca-KPLGL-Dpa-AR-NH2, 20 µM). Reactions were incubated at RT for 2 h, after which the fluorescence was measured using a PerkinElmer Viewlux multimode microplate imager (λexcitation = 324 nm, λemission = 390 nm). Final concentration of test compounds in assays was 7.0 µM.

The test system of series [8] is BJ skin fibroblasts and primary melanocytes. Put plainly: Cell toxicity studies (CellTiter-Glo, 72 h). It counts as cell-based. The following applies: skin fibroblast and melanocyte viability. The procedure: We also tested representative compounds from each scaffold for effects on skin fibroblast and melanocyte viability to ascertain cytotoxicity towards various skin cell types.
Test compounds were solubilized in 100% DMSO and added to polypropylene 384 well plates (Greiner cat# 781280). The 1250 of BJ skin fibroblasts (ATCC CRL-2522) and primary melanocytes (ATCC PCS-200-013) were plated in 384 well plates in 8 µL of serum-free media […]. Test compounds and pharmacological assay control (lapatinib) were prepared as 10-point, 1:3 serial dilutions starting at 10 mM, then added to the cells using the pin tool mounted on the Integra 384. Plates were incubated for 72 h at 37 °C, 5% CO2 and 95% relative humidity. […] Luminescence was recorded using a Biotek Synergy H1 multimode microplate reader. Viability was expressed as a percentage relative to wells containing media only (0%) and wells containing cells treated with DMSO only (100%). Three parameters were calculated on a per plate basis: (a) the signal-to-background ratio (S/B); (b) the coefficient for variation (CV; CV = (standard deviation/mean) × 100)) for all compound test wells; and (c) the Z’-factor. IC50 values were calculated by fitting normalized data to sigmoidal log versus response equation utilizing nonlinear regression analysis from GraphPad Prizm 8.

The subject of series [9] is MMP and ADAM. The following applies: cited from earlier work.
Series [10] addresses meprin β. The following applies: cited from earlier work.

Molecules are shown by their SMILES. Where only a bound is given, the exact number is not on record here.

T3 sequence (P22894 101-467): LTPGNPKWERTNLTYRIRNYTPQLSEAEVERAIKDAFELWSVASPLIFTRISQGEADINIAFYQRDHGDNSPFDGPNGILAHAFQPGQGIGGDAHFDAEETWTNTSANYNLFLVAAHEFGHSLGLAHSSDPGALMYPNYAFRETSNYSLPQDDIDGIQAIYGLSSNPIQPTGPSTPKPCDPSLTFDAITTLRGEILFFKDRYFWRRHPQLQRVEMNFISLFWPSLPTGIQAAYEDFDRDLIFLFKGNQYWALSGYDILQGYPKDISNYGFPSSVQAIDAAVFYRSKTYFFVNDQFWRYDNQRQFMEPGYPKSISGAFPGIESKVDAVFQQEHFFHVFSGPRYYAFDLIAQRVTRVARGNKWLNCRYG
Sequence of MMP3 (P08254 100-477, species assumed): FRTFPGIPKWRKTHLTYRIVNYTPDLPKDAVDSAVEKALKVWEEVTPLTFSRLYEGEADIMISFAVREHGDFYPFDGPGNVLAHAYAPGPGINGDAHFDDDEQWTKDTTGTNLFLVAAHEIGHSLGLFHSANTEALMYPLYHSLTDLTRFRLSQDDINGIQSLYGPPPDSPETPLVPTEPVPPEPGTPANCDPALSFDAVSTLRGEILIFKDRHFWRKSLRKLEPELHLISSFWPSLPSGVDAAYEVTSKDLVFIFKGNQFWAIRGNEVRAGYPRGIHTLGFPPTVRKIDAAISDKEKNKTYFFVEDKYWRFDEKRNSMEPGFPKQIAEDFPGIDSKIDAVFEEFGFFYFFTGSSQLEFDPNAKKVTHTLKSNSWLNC
T5 sequence (P09238 99-476): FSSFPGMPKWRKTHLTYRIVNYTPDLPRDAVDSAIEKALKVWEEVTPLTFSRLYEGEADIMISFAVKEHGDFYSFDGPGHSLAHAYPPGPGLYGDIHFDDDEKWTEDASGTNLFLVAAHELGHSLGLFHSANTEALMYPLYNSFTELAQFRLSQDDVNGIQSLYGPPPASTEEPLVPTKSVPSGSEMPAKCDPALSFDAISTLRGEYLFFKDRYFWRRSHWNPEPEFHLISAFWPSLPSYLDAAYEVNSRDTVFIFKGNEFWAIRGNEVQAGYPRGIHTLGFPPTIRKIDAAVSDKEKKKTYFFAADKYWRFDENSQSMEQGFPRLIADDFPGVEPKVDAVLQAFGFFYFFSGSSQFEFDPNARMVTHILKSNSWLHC
T1 sequence (P14780 94-707): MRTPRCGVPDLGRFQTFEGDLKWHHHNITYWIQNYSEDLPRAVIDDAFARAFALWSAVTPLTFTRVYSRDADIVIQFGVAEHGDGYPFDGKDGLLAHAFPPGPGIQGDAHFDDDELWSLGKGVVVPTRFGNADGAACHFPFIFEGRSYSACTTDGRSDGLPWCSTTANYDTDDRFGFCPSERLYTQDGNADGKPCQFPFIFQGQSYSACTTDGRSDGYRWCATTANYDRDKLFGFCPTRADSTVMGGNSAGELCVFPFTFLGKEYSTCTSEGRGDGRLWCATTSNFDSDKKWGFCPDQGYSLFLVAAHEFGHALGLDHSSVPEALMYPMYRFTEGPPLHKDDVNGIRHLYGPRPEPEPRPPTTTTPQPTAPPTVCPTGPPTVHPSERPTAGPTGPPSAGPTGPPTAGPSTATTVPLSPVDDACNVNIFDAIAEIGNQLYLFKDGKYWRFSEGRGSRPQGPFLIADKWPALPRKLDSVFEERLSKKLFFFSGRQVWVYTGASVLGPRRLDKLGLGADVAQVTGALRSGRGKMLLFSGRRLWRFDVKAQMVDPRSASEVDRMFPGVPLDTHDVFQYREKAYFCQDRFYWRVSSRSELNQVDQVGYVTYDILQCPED
T6 sequence (P78536 215-824): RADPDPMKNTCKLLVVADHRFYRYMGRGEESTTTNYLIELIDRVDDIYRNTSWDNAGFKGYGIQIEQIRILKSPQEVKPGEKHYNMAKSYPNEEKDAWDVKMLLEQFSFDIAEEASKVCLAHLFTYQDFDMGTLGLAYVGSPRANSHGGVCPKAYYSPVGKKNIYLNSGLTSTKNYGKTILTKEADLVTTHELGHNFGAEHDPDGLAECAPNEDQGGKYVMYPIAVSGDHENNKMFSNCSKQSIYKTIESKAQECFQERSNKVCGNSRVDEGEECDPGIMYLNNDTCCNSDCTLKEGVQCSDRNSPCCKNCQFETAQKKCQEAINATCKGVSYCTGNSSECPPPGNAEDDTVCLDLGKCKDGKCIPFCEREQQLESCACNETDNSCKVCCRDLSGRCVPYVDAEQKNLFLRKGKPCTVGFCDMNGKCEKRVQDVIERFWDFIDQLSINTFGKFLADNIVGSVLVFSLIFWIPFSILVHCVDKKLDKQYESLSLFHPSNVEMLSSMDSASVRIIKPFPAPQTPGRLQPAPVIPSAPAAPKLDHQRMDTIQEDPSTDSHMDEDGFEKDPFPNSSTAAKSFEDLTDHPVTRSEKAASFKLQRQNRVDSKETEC

Consider `O=C(c1ccc(C(=O)O)c([N+](=O)[O-])c1)c1ccc(C(=O)O)c([N+](=O)[O-])c1` [SR355996], for which the IC50 (usually the midpoint of a concentration-inhibition curve) in series [1] was 17 µM; in [2] it was over 17 µM; in [3] it was over 17 µM; in [4], over 17 µM; in series [5], over 17 µM; in series [6], over 17 µM. Also, the IC50 in series [7] is over 17 µM.
Regarding `O=C(CCN(Cc1cccs1)S(=O)(=O)c1ccc([N+](=O)[O-])cc1)NO` [Compound 162799], the IC50 in [1], in series [2], in series [3], in [4], in series [5] and in series [6] was over 17 µM each time. Moreover, the IC50 in series [7] was over 17 µM.
For the molecule `O=C(CCN(Cc1ccccc1)S(=O)(=O)c1ccc(F)cc1)NO` [Compound 162808], in series [8], the “cytotoxicity (effect on cell viability)” value is reported as “no cytotoxicity”. The IC50 was over 17 µM in series [1]; 17 µM in series [2]; over 17 µM in series [3]; over 17 µM in [4]; over 17 µM in series [5]; over 17 µM in [6]. The molecule further had an IC50 in series [7] of over 17 µM.
Take `O=C(CSc1nnc(NC(=O)COc2ccccc2)s1)NO` [Compound 19848]: the IC50 in series [1], in series [2], in series [3], in series [4], in series [5] and in series [6] was over 17 µM each time. Moreover, the IC50 in [7] was over 17 µM.
Regarding `O=[N+]([O-])c1ccc(CN2CCC3(CCc4ccccc43)CC2)o1` [SR207820], the IC50 in series [1] was over 17 µM; in series [2], over 17 µM; in series [3], 17 µM; in series [4], over 17 µM; in series [5], over 17 µM; in series [6], over 17 µM. This molecule also registered an IC50 in series [7] of over 17 µM.
Regarding `COc1cc(OC)cc(C(=O)CNc2nnc(SCC(=O)NO)s2)c1` [Compound 19849], the IC50 in series [1], in series [2], in [3], in series [4], in [5] and in series [6] was over 17 µM each time. Further, it took 8.01 µM to reach half-maximal inhibition in series [7] (IC50).
Turning to `COc1ccc(-n2c(CSc3ncccn3)nnc2SCC(=O)NO)cc1` [Compound 19855], the IC50 in [1], in [2], in [3], in [4], in series [5] and in series [6] was over 17 µM throughout. The molecule further gave an IC50 in series [7] of over 17 µM.
Take `CSc1nnc2c(n1)OC(c1ccc([N+](=O)[O-])o1)Nc1ccccc1-2` (stereo not shown) [SR412882]: the half-inhibitory concentration (IC50) in series [1] is over 17 µM; in series [2], over 17 µM; in series [3] it was 15 µM; in series [4] it was over 17 µM; in [5], 10.5 µM; in [6], 9.7 µM. Besides, in [7], the IC50 was determined as 17 µM.
Regarding `O=C(CSc1nnc(NC(=O)c2ccccc2)s1)NO` [Compound 19847], the IC50 is over 17 µM in series [1]; 2.87 µM in series [2]; over 17 µM in series [3]; over 17 µM in series [4]; over 17 µM in series [5]; over 17 µM in [6]. Further, the concentration for half-maximal inhibition (IC50) in series [7] is over 17 µM.
On to `O=C(Nc1cc(C(=O)Nc2ccc(S(=O)(=O)O)cc2S(=O)(=O)O)cc(C(=O)Nc2ccc(S(=O)(=O)O)cc2S(=O)(=O)O)c1)Nc1cc(C(=O)Nc2ccc(S(=O)(=O)O)cc2S(=O)(=O)O)cc(C(=O)Nc2ccc(S(=O)(=O)O)cc2S(=O)(=O)O)c1` [NFF449], for which, in [9], the “selectivity against adamalysins and matrixins” value was “good selectivity”. In addition, in series [10], the Ki – broadly, a dissociation constant, usually derived from enzyme kinetics or from competition with a known ligand – is 22 nM.
Consider `O=C(COc1ccc(Cl)cc1Cl)NO` [Compound 1596857], for which the IC50 in [1], in series [2], in [3], in [4], in series [5] and in series [6] was over 17 µM throughout. In [7], this molecule returned an IC50 of over 17 µM.

The record behind these values is paper PMC8000592, “Discovery and Optimization of Selective Inhibitors of Meprin α (Part I)” (Pharmaceuticals, 2021).
